The assay concerns Tyrosinase (Agaricus bisporus). The assay is described as follows: Inhibitory activity at a concentration of 0.5 nm, was evaluated against the oxidation of L-3,4-dihydroxyphenylalanine (L-DOPA) catalyzed by mushroom tyrosinase; No inhibitory activity.

As to `COc1cc(C(C)C)ccc1C=O`, the IC50 result is “No inhibition”.

The record behind these values is ChEMBL document CHEMBL1147427, “2-hydroxy-4-isopropylbenzaldehyde, a potent partial tyrosinase inhibitor” (Bioorg Med Chem Lett, 2004).
